Broadly, the EC50 is the concentration that produces a half-maximal response. Low values mean an effect from little substance, high ones a need for much substance.

Assay [1] deals with T1, β-kinase domain of the human insulin receptor (CKD) (Homo sapiens, UniProt P06213).
T1 construct: The complete β-kinase domain of the human insulin receptor (CKD); made in house
In words: 32P-Cytoplasmic Kinase Domain (CKD) autophosphorylation assay. The format is biochemical. The note with it: 32P incorporated into CKD band, percentage of the vehicle (DMSO) level; 10 minutes at room temperature; compound concentration not given. The method, then:
The complete β-kinase domain of the human insulin receptor (CKD) was expressed in, and purified from, baculovirus. CKD (4.0 μg/mL), in a solution of 50 mM Tris.HCl, 2 mM MnCl2, 10 mM MgCl2 (50 μl final volume), was combined with […] ATP, and 5 μCi ^32P-ATP (3000 Ci/mmol.). A test compound, or the vehicle (DMSO), was added to a final DMSO concentration of 1%. The mixture was incubated for 10 minutes at room temperature. The reaction was terminated by the addition of 10 μl of 200 mM EDTA. A 30 μl volume was removed, mixed with 5 μl of 6×Laemmeli sodium dodecyl sulfate (SDS) treatment buffer, and heated to 94° C. for 5 minutes. A 20 μl aliquot was then run on an SDS-PAGE gel. The radioactivity incorporated into the CKD band is quantified by phosphorimaging of the gel, or scintillation counting of the excised bands.
The potency of a compound for increasing phosphorylation is expressed as a percentage of the vehicle level.

The next assay relates to 3T3 L1 fibroblasts. Description: Glucose transport activity (14C-2-deoxy-D-glucose uptake). The note with it: Mus musculus; differentiated 3T3 L1 cells, insulin 5.6 nM; concentration giving increase in glucose transport generally 150% of the vehicle control. The class given is cell-based. The method, then: 3T3 L1 fibroblasts (ATCC) were grown in Dulbecco's modified Eagle's medium (DMEM) with 10% fetal bovine serum (FBS, medium). The cells were plated at a density of 3×10^4 cells/well in 24-well plates. Two days after confluence was reached, the cells were treated for 3 days with 0.5 mM isobutylmethylxanthine (IBMX), 1 μM dexamethasone, supplemented with 1.7 μM insulin. The cells were then transferred to medium with 1.7 μM insulin for 2 more days. The cells were maintained in medium for an additional 4 days. Finally the cells were serum starved overnight in 0.1% bovine serum albumin (BSA) in DMEM.
The following day, the culture medium was replaced with 150 mM NaCl, 1.7 mM KCl, 0.9 mM CaCl2, 1.47 mM K2HPO4 (pH 7.4) to which was added either the experimental compounds, or their vehicle (DMSO). Insulin or its vehicle (0.01% BSA) was diluted in the assay buffer (containing test compound or vehicle, respectively) to a final concentration of 5.6 nM. After incubation for 30 min at 37° C. 5 μCi/mL ^14C-2-[…]-D-glucose was added, and the incubation was continued for additional 30 min at 37° C. The cells were then washed 3 times with ice-cold PBS/20 mM glucose and […] in 250 μl of lysis buffer (50 mM HEPES pH 7.6, 1% Triton X-100) for 30 min at room temperature. Radioactivity in the lysate was quantified by scintillation counting.
Once ^14C-2-deoxy-D-glucose is transported into the cell it is not released. Glucose transport is, therefore, proportional to the amount of radioactivity in the lysate. The concentration of compound necessary to produce an increase in glucose transport greater than the sum of the standard deviation of the vehicle control plus the largest standard deviation of a test sample (generally 150% of the vehicle control) was recorded as the EC (effective concentration).

T1 sequence (P06213 980-1382 limits assumed): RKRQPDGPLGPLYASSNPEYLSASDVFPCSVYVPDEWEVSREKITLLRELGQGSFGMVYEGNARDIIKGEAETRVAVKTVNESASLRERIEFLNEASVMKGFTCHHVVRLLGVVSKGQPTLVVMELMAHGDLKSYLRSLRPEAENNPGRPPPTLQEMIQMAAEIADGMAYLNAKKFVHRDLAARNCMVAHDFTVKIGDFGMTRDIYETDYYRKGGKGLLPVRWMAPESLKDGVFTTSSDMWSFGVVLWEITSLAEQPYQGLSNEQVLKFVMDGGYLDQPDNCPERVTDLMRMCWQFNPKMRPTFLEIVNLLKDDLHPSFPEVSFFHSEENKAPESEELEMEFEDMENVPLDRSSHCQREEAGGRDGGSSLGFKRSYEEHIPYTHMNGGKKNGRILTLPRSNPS

`Cc1cccc(C(=O)Nc2cc(C(=O)Nc3cccc4cc(S(=O)(=O)O)ccc34)cc(C(=O)Nc3cccc4cc(S(=O)(=O)O)ccc34)c2)c1` [Compound 7, 5-({3-[(3-methylphenyl)carbonylamino]-5-[N-(6-sulfonaphthyl)carbamoyl]phenyl}carbonylamino)naphthalene-2-sulfonic acid]: in assay [1], the “Activity (% Control)” value worked out at 93.3 % Control. Besides, in the assay on 3T3 L1 fibroblasts, the concentration for a half-maximal effect (EC50) is > 250 µM. The like results for `Cc1ccc(C(=O)Nc2cc(C(=O)Nc3cccc4cc(S(=O)(=O)O)ccc34)cc(C(=O)Nc3cccc4cc(S(=O)(=O)O)ccc34)c2)cc1` [Compound 8, 5-({3-[(4-methylphenyl)carbonylamino]-5-[N-(6-sulfonaphthyl)carbamoyl]phenyl}carbonylamino)naphthalene-2-sulfonic acid] were, in that order, 130.5 % Control and 3 µM. As to `COc1ccc(C(=O)Nc2cc(C(=O)Nc3cccc4cc(S(=O)(=O)O)ccc34)cc(C(=O)Nc3cccc4cc(S(=O)(=O)O)ccc34)c2)cc1` [Compound 9, 5-({3-[(4-methoxyphenyl)carbonylamino]-5-[N-(6-sulfonaphthyl)carbamoyl]phenyl}carbonylamino)naphthalene-2-sulfonic acid], the “Activity (% Control)” value in assay [1] is 125.3 % Control. In the assay on 3T3 L1 fibroblasts, this compound displayed an EC50 of 10 µM. Take `O=C(Nc1cccc2cc(S(=O)(=O)O)ccc12)c1cc(NS(=O)(=O)c2ccc(F)cc2)cc(C(=O)Nc2cccc3cc(S(=O)(=O)O)ccc23)c1` [Compound 51, 5-[(3-{[(4-fluorophenyl)sulfonyl]amino}-5-[N-(6-sulfonaphthyl)carbamoyl]phenyl)carbonylamino]naphthalene-2-sulfonic acid]: the “Activity (% Control)” value in assay [1] turned out to be 133.0 % Control. Same read-out and setting: the same measure for `COc1ccc(S(=O)(=O)Nc2cc(C(=O)Nc3cccc4cc(S(=O)(=O)O)ccc34)cc(C(=O)Nc3cccc4cc(S(=O)(=O)O)ccc34)c2)cc1` [Compound 52, 5-[(3-{[(4-methoxyphenyl)sulfonyl]amino}-5-[N-(6-sulfonaphthyl)carbamoyl]phenyl)carbonylamino]naphthalene-2-sulfonic acid]: 111.1 % Control; for `Cc1ccc(S(=O)(=O)Nc2cc(C(=O)Nc3cccc4cc(S(=O)(=O)O)ccc34)cc(C(=O)Nc3cccc4cc(S(=O)(=O)O)ccc34)c2)cc1` [Compound 53, 5-[(3-{[(4-methylphenyl)sulfonyl]amino}-5-[N-(6-sulfonaphthyl)carbamoyl]phenyl)carbonylamino]naphthalene-2-sulfonic acid]: 105.7 % Control. The same measure, in the same setting: next, `O=C(Nc1cccc2cc(S(=O)(=O)O)ccc12)c1cc(NS(=O)(=O)c2cccc3ccccc23)cc(C(=O)Nc2cccc3cc(S(=O)(=O)O)ccc23)c1` [Compound 54, 5-({3-[(1-naphthylsulfonyl)amino]-5-[N-(6-sulfonaphthyl)carbamoyl]phenyl}carbonylamino)naphthalene-2-sulfonic acid]: 46.5 % Control; `Cc1cc(C)c(S(=O)(=O)Nc2cc(C(=O)Nc3cccc4cc(S(=O)(=O)O)ccc34)cc(C(=O)Nc3cccc4cc(S(=O)(=O)O)ccc34)c2)c(C)c1` [Compound 55, 5-[(3-{[(2,4,6-trimethylphenyl)sulfonyl]amino}-5-[N-(6-sulfonaphthyl)carbamoyl]phenyl)carbonylamino]naphthalene-2-sulfonic acid]: 121.6 % Control. For `O=C(Nc1cccc2cc(S(=O)(=O)O)ccc12)c1cc(NS(=O)(=O)Cc2ccccc2)cc(C(=O)Nc2cccc3cc(S(=O)(=O)O)ccc23)c1` [Compound 56, 5-[(5-{[benzylsulfonyl]amino}-3-[N-(6-sulfonaphthyl)carbamoyl]phenyl)carbonylamino]naphthalene-2-sulfonic acid], in assay [1], the “Activity (% Control)” value was found to be 102.4 % Control. Still for that read-out and setting: next, `O=C(Nc1cccc(Cl)c1)Nc1cc(C(=O)Nc2cccc3cc(S(=O)(=O)O)ccc23)cc(C(=O)Nc2cccc3cc(S(=O)(=O)O)ccc23)c1` [Compound 57, 5-[(3-{[(3-chlorophenyl)amino]carbonylamino}-5-[N-(6-sulfonaphthyl)carbamoyl]phenyl)carbonylamino]naphthalene-2-sulfonic acid]: 109.6 % Control. The same measure, in the same setting: next, `O=C(Nc1ccc(Cl)cc1)Nc1cc(C(=O)Nc2cccc3cc(S(=O)(=O)O)ccc23)cc(C(=O)Nc2cccc3cc(S(=O)(=O)O)ccc23)c1` [Compound 58, 5-[(3-{[(4-chlorophenyl)amino]carbonylamino}-5-[N-(6-sulfonaphthyl)carbamoyl]phenyl)carbonylamino]naphthalene-2-sulfonic acid]: 106.4 % Control; `O=C(Nc1cc(C(=O)Nc2cccc3cc(S(=O)(=O)O)ccc23)cc(C(=O)Nc2cccc3cc(S(=O)(=O)O)ccc23)c1)Nc1ccccc1Cl` [Compound 59, 5-[(3-{[(2-chlorophenyl)amino]carbonylamino}-5-[N-(6-sulfonaphthyl)carbamoyl]phenyl)carbonylamino]naphthalene-2-sulfonic acid]: 120.4 % Control. As for `Cc1ccccc1NC(=O)Nc1cc(C(=O)Nc2cccc3cc(S(=O)(=O)O)ccc23)cc(C(=O)Nc2cccc3cc(S(=O)(=O)O)ccc23)c1` [Compound 60, 5-[(3-{[(2-methylphenyl)amino]carbonylamino}-5-[N-(6-sulfonaphthyl)carbamoyl]phenyl)carbonylamino]naphthalene-2-sulfonic acid], in assay [1], the “Activity (% Control)” value amounted to 97.5 % Control.

For `Cc1cccc(NC(=O)Nc2cc(C(=O)Nc3cccc4cc(S(=O)(=O)O)ccc34)cc(C(=O)Nc3cccc4cc(S(=O)(=O)O)ccc34)c2)c1` [Compound 61, 5-[(3-{[(3-methylphenyl)amino]carbonylamino}-5-[N-(6-sulfonaphthyl)carbamoyl]phenyl)carbonylamino]naphthalene-2-sulfonic acid], the “Activity (% Control)” value in assay [1] worked out at 114.6 % Control. On the same count and under the same terms, next, `Cc1ccc(NC(=O)Nc2cc(C(=O)Nc3cccc4cc(S(=O)(=O)O)ccc34)cc(C(=O)Nc3cccc4cc(S(=O)(=O)O)ccc34)c2)cc1` [Compound 62, 5-[(3-{[(4-methylphenyl)amino]carbonylamino}-5-[N-(6-sulfonaphthyl)carbamoyl]phenyl)carbonylamino]naphthalene-2-sulfonic acid]: 102.8 % Control; `COc1ccccc1NC(=O)Nc1cc(C(=O)Nc2cccc3cc(S(=O)(=O)O)ccc23)cc(C(=O)Nc2cccc3cc(S(=O)(=O)O)ccc23)c1` [Compound 63, 5-[(3-{[(2-methoxyphenyl)amino]carbonylamino}-5-[N-(6-sulfonaphthyl)carbamoyl]phenyl)carbonylamino]naphthalene-2-sulfonic acid]: 94.4 % Control; `COc1cccc(NC(=O)Nc2cc(C(=O)Nc3cccc4cc(S(=O)(=O)O)ccc34)cc(C(=O)Nc3cccc4cc(S(=O)(=O)O)ccc34)c2)c1` [Compound 64, 5-[(3-{[(3-methoxyphenyl)amino]carbonylamino}-5-[N-(6-sulfonaphthyl)carbamoyl]phenyl)carbonylamino]naphthalene-2-sulfonic acid]: 58.3 % Control. On the same count and under the same terms, next, `COc1ccc(NC(=O)Nc2cc(C(=O)Nc3cccc4cc(S(=O)(=O)O)ccc34)cc(C(=O)Nc3cccc4cc(S(=O)(=O)O)ccc34)c2)cc1` [Compound 65, 5-[(3-{[(4-methoxyphenyl)amino]carbonylamino}-5-[N-(6-sulfonaphthyl)carbamoyl]phenyl)carbonylamino]naphthalene-2-sulfonic acid]: 85.9 % Control; `O=C(Nc1ccccc1)Nc1cc(C(=O)Nc2cccc3cc(S(=O)(=O)O)ccc23)cc(C(=O)Nc2cccc3cc(S(=O)(=O)O)ccc23)c1` [Compound 66, 5-({3-[(phenylamino)carbonylamino]-5-[N-(6-sulfonaphthyl)carbamoyl]phenyl}carbonylamino)naphthalene-2-sulfonic acid]: 115.5 % Control.

The values above are taken from patent US6653321B1, “Naphthylsulfonic acids and related compounds as glucose uptake agonists” (Telik, Inc., priority 1999, dated 2003).
